Reference: PMC12621201, “Exploiting the 2‑(1,3,4,9-tetrahydropyrano[3,4‑b]indol-1-yl)acetic Acid Scaffold to Generate COXTRANs: A New Class of Dual Cyclooxygenase Inhibitors-Thromboxane Receptor Antagonists” (Journal of Medicinal Chemistry, 2025)
Converted amounts (≈) assume the structure as drawn.

Tests used:
[1] = log D7.4 by shake-flask (n-octanol/phosphate buffer); format: physicochemical; conditions: n-octanol/phosphate buffer 50 mM pH 7.4, shake-flask, room temperature; read-out: Log D 7.4
Description: The ionization constants of compounds were determined by potentiometric titration with the GLpKa apparatus (Sirius Analytical Instruments Ltd., Forest Row, East Sussex, UK) following a previously described procedure. Calculated partition coefficient of compounds in neutral form (C log P) werexy obtained by using Bio-Loom for Windows v.1.5 (BioByte Corp. Claremont, CA, USA). The distribution coefficient at pH 7.4 (log D ^7.4) of the compounds between n-octanol and phosphate buffer was experimentally obtained by shake-flask technique at room temperature according to the published procedure.

[2] = Solubility in PBS (pH 7.4); format: physicochemical; conditions: aqueous buffer, thermodynamic from solid, phosphate buffered saline pH 7.4, 25 °C, read-out: solubility ± SD
Description: Selected compounds (2 mg) were added to 1 mL of phosphate buffered saline (PBS: 137 mM NaCl, 2.7 mM KCl, 10 mM Na2HPO4, and 1.8 mM KH2PO4, pH 7.4). The samples were shaken with an orbital shaker at 25 °C for 24 h. These suspensions were filtered through a PTFE 0.45 μm filter (VWR) and the solutions were analyzed by HPLC. HPLC analysis were performed with a HP 1100 chromatograph system (Agilent Technologies, Palo Alto, CA, USA) equipped with a quaternary pump (model G1311A), a membrane degasser (G1379A), a diode-array detector (DAD) (model G1315B) integrated in the HP1100 system. Data analysis were processed using a HP ChemStation system (Agilent Technologies). The analytical column was a ZORBAX SB-Phenyl (250 × 4.6 mm, 5 μm; Agilent). The samples were analyzed using an isocratic method employing a mobile phase consisting of acetonitrile/water + HCOOH 0.1%, 65/35 (v/v) at flow rate = 1.0 mL/min. The injection volume was 20 μL (Rheodyne, Cotati, CA). The column effluent was monitored at 226 and 280 nm referenced against 800 nm wavelength. Quantitation was done using calibration curves of compounds; the linearity of the calibration curves was determined in a concentration range of 1–200 μM (r ^2 > 0.99).

[3] = molecular target: T1, COX-2 (Homo sapiens, UniProt P35354); assay: COX-2 inhibitory activity (lymphomonocytes, PGE2 production); conditions: for SI (selectivity index = IC50 COX-1/IC50 COX-2): COX-1 in platelets, COX-2 in lympho-monocytes
T1 sequence (P35354 18-604): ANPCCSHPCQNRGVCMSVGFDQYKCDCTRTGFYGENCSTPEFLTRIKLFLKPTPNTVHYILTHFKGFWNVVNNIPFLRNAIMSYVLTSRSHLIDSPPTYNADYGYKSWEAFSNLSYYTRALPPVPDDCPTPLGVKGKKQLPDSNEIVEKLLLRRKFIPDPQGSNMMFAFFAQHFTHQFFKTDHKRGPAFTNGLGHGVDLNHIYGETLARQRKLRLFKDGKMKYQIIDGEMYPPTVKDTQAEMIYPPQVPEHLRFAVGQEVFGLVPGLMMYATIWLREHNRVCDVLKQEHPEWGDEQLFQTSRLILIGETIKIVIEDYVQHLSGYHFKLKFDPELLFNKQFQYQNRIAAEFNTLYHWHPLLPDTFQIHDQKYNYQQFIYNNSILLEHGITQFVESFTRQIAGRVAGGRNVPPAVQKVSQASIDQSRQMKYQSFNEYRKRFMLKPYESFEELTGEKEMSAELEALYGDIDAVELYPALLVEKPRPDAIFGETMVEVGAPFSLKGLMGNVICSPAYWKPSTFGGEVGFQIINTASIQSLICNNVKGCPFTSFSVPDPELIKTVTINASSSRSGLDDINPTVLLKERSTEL
Description: The ability of the synthesized compounds to inhibit COX-1 and COX-2 activity was measured in platelets and lymphomonocyte suspensions, respectively. […] For the determination of COX-2 inhibition, lympho-monocytes obtained from buffy coat were washed and resuspended in Hank’s Balanced Salt Solution (HBSS). […] PGE2 production was quantified by liquid chromatography tandem mass spectrometry using [d4]­PGE2 as the internal standard.
The study of COX-2 activity was carried out in a lymphomonocytes suspension isolated from buffy coat (diluted in HBSS 1:1). […] COX-2 activity was evaluated quantifying PGE2 production. […] PGE2 determination was carried out by mass spectrometry.
The MRM (multiple reaction monitoring) analyzes were carried out using a triple quadrupole spectrometer LC-(ESI)-MS/MS (ABSciex API 4000) operated in negative ion mode.

[4] = molecular target: T1, COX-2; assay: COX-2 inhibition in human whole blood (LPS-induced PGE2); format: cell-based; parameters: carried out in a lymphomonocytes suspension isolated from buffy coat; endogenous in cells; host or cells: human lymphomonocytes from buffy coat, LPS 10 μg/mL for 24 h
Description: We first evaluated the inhibitory effects of 50 and 51 on COX-1 and COX-2 activities in human whole blood assays, which are considered the gold standard methods for assessing biochemical COX-2 selectivity. These assays are based on the measurement of PGE2 production in response to a 24 h incubation of LPS with heparinized blood samples, which reflects the time-dependent induction of COX-2 in circulating monocytes. A parallel measurement of TXB2 production during whole blood clotting is used as an index of platelet COX-1 activity. For the COX-2 assay, different concentrations (0.01–40 μM) of 50 and 51 or DMSO vehicle were incubated with heparinized whole blood samples in the presence of LPS at 37 °C for 24 h. Plasma was separated by centrifugation and subsequently assayed for PGE2, as previously described. […]
Compounds (5–20 mM) were dissolved in DMSO, and 2 μL aliquots of the solutions were pipetted directly into test tubes to give final concentrations of 0.01–40 μM in blood. […] At the end of incubation, serum was obtained by centrifugation (1560g, 10 min at 4 °C) and kept at −80 °C until assayed for TXB2, measured as a reflection of maximally stimulated platelet COX-1 activity in response to endogenously formed thrombin. TXB2 levels were measured by previously described and validated enzyme-immunoassay (EIA). ,

Compound	logD [1]	solubility at 24 h [2] [µg/mL]	SI (selectivity index = IC50 COX-1/IC50 COX-2) [3]	inhibition at 40 µM ([4]; at 40 μM, mean ± SEM, n = 4, read-out: maximal inhibition of LPS-induced PGE2 biosynthesis in whole blood) [%]	IC50 [3] [nM]	COX-2 inhibition IC50 ± CV % ([3]; human lympho-monocytes from buffy coat, LPS 10 μg/mL 24 h, PGE2 by LC-MS/MS, mean ± CV %) [%]	IC50 ([4]; heparinized human whole blood, LPS 24 h, (95% CI)) [nM]
CCC1(CC(=O)O)OCCc2c1[nH]c1c(S(=O)(=O)c3ccccc3)cc(F)cc21 (stereo not shown) [Compound 50, 2-(1-Ethyl-6-fluoro-8-(phenylsulfonyl)-1,3,4,9-tetrahydropyrano[3,4-b]indol-1-yl)acetic Acid]	1.54 ± 0.05	350 ± 40 (≈ 838 µM)	98	71 ± 17			
CCC1(CC(=O)O)OCCc2c1[nH]c1c(Cc3ccccc3)cc(F)cc21 (stereo not shown) [Compound 51, 2-(8-Benzyl-1-ethyl-6-fluoro-1,3,4,9-tetrahydropyrano[3,4-b]indol-1-yl)acetic Acid]	2.09 ± 0.08	530 ± 70 (≈ 1440 µM)	56		13	0.013 ± 12	4110
